From patent publication US8987249B2, “Substituted 2-Aza-bicyclo[2.2.1]heptane-3-carboxylic acid (benzyl-cyano-methyl)-amides inhibitors of Cathepsin C” (Boehringer Ingelheim International GmbH, priority 2013, dated 2015) come the findings set out here.

The target of experiment [1] is recombinant human Cathepsin K (Homo sapiens (Human), UniProt P43235). Kind of experiment: Inhibition of human Cathepsin K. The note with it: substrate Z-Gly-Pro-Arg-AMC. The class given is biochemical. The source says:
Inhibition of Human Cathepsin K
Materials: Microtiterplates (Optiplate-384 F were purchased from PerkinElmer (Prod. No. 6007270). The substrate Z-Gly-Pro-Arg-AMC was from Biomol (Prod.-No. P-142). L-Cysteine (Prod. No. 168149) was from Sigma. Sodium acetate was from Merck (Prod.-No. 6268.0250), EDTA was from Fluka (Prod.-No. 03680). The inhibitor E-64 was purchased from Sigma (Prod.-No. E3132). The recombinant human Cathepsin K proenzyme was purchased from Biomol (Prod. No. SE-367). All other materials were of highest grade commercially available.
The following buffers were used: Activation buffer: 32.5 mM sodium acetate, adjusted to pH 3.5 with HCl; Assay buffer: 150 mM sodium acetate, 4 mM EDTA, 20 mM L-Cysteine, adjusted to pH 5.5 with HCl,
To activate the proenzyme, 5 μl procathepsin K were mixed with 1 ul activation buffer, and incubated at room temperature for 30 min.
5 μL test compound (final concentration 0.1 nM to 100 μM) in aqua bidest (containing 4% DMSO, final DMSO concentration 1%) were mixed with 10 uL of Cathepsin K in assay buffer (final concentration 2 ng/μL) and incubated for 10 min. […] The plates were then incubated at room temperature for 60 min. Then, the reaction was stopped by adding 10 μL of E64 in assay buffer (final concentration 1 μM). The fluorescence in the wells was determined using a Molecular Devices SpectraMax M5 Fluorescence Reader (Ex 360 nm, Em 460 nm).
Each assay microtiter plate contains wells with vehicle controls (1% DMSO in bidest) as reference for non-inhibited enzyme activity (100% Ctl; high values) and wells with inhibitor (E64 in bidest+1% DMSO, final concentration […]) as controls for background fluorescence (0% Ctl; low values). The analysis of the data was performed by calculating the percentage of fluorescence in the presence of test compound in comparison to the fluorescence of the vehicle control after subtracting the background fluorescence: (RFU(sample)−RFU(background))*100/(RFU(control)−RFU(background))
Data from these calculations were used to generate IC50 values for inhibition of Cathepsin K, respectively.

The target in experiment [2] is recombinant human DPPI (Cathepsin C) (Homo sapiens (Human), UniProt P53634). Kind of experiment: Inhibition of human DPPI (Cathepsin C). In kind it is biochemical. The note with it: substrate Gly-Arg-AMC. The protocol: Inhibition of Human DPPI (Cathepsin C)
Bovine serum albumin (BSA; Prod. No. A3059) and Dithiothreitol (DTT; Prod. No D0632) were from Sigma. […] The DPP1 inhibitor Gly-Phe-DMK was purchased from MP Biomedicals (Prod.-No. 03DK00625). The recombinant human DPPI was purchased from Prozymex. All other materials were of highest grade commercially available.
The following buffers were used: MES buffer: 25 mM MES, 50 mM NaCl, 5 mM DTT, adjusted to pH 6.0, containing 0.1% BSA; TAGZyme Buffer: 20 mM NaH2PO4, 150 mM NaCl adjusted to pH 6.0 with HCl
Then, 5 μL of substrate in MES buffer (final concentration 50 μM) were added. The microtiter plates were then incubated at room temperature for 30 min. Then, the reaction was stopped by adding 10 μL of Gly-Phe-DMK in MES-buffer (final concentration 1 μM).
The analysis of the data was performed by calculating the percentage of fluorescence in the presence of test compound in comparison to the fluorescence of the vehicle control after subtracting the background fluorescence using the following formula: (RFU(sample)−RFU(background))*100/(RFU(control)−RFU(background))
Data from these calculations were used to generate IC50 values for inhibition of DPPI, respectively.

One may read the IC50 as the concentration that inhibits the measured activity by half.

Sequence of recombinant human DPPI (Cathepsin C) (P53634 231-394): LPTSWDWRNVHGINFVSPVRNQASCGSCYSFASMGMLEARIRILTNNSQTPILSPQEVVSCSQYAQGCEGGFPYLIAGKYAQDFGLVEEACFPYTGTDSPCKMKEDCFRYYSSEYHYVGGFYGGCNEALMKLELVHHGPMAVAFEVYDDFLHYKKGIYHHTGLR
Sequence of recombinant human DPPI (Cathepsin C) (P53634 395-463): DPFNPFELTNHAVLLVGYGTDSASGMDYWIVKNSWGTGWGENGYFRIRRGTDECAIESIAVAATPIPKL
Sequence of recombinant human DPPI (Cathepsin C) (P53634 25-134): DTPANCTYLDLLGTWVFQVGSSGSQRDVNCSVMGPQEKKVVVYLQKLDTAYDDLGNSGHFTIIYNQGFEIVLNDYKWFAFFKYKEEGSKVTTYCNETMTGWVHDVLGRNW
Sequence of recombinant human Cathepsin K (P43235 115-329): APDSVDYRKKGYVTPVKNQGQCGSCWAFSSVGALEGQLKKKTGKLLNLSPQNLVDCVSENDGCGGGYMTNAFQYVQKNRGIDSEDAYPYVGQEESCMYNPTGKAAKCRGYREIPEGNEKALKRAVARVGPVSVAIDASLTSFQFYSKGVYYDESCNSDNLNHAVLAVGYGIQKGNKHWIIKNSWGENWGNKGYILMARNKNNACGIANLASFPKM

Turning to `COCCN1CCN(C(=O)c2cc(-c3ccc(C[C@@H](C#N)NC(=O)[C@H]4N[C@@H]5CC[C@H]4C5)c(F)c3)cs2)CC1` [Example 228], the IC50 is 2000 nM in experiment [1] and 1.6 nM in experiment [2].

In the case of `N#C[C@H](Cc1ccc(-c2ccc(C(=O)N3CCn4nccc4C3)s2)cc1F)NC(=O)[C@H]1N[C@@H]2CC[C@H]1C2` [Example 237], the IC50 in experiment [1] is 1900 nM; in experiment [2], 4.6 nM.

With `N#C[C@H](Cc1ccc(-c2cn[nH]c2)cc1F)NC(=O)[C@H]1N[C@@H]2CC[C@H]1C2` [Example 69], the IC50 was 2400 nM in experiment [1] and 9.9 nM in experiment [2].

On to `Cn1cc(-c2ccc(C[C@@H](C#N)NC(=O)[C@H]3N[C@@H]4CC[C@H]3C4)c(F)c2)c(C(F)(F)F)n1` [Example 118], for which the IC50 in experiment [1] turned out to be 3900 nM; in experiment [2], 44.3 nM.

For the compound `N#CC(Cc1ccc(-c2ccc3c(c2)CC(=O)N3)cc1F)NC(=O)[C@H]1N[C@@H]2CC[C@H]1C2` (stereo partly shown) [Example 79], the IC50 in experiment [1] was 3500 nM; in experiment [2], 12 nM.

Turning to `N#C[C@H](Cc1ccc(-c2cnn(C(=O)C3CCOCC3)c2)cc1F)NC(=O)[C@H]1N[C@@H]2CC[C@H]1C2` [Example 74], the values for the half-inhibitory concentration (IC50) in experiment [1] and in experiment [2] were 2500 nM and 11.4 nM, respectively.

As for `COc1cccc(-c2cn(-c3ccc(C[C@@H](C#N)NC(=O)[C@H]4N[C@@H]5CC[C@H]4C5)c(F)c3)nn2)c1` [Example 94], the half-maximal inhibitory concentration (IC50) in experiment [1] came to 4900 nM.

Consider `Cc1cc(-c2ccc(C[C@@H](C#N)NC(=O)[C@H]3N[C@@H]4CC[C@H]3C4)c(F)c2)n(C)n1` [Example 63], for which the IC50 in experiment [1] came to 6200 nM.

For the compound `Cc1c(-c2ccc(C[C@@H](C#N)NC(=O)[C@H]3N[C@@H]4CC[C@H]3C4)c(F)c2)cnn1C` [Example 39], in experiment [1], the 50% inhibitory concentration (IC50) was 7800 nM.

As to `CC(C)n1cc(-c2ccc(CC(C#N)NC(=O)[C@H]3N[C@@H]4CC[C@H]3C4)c(F)c2)cn1` (stereo partly shown) [Example 68], the IC50 in experiment [1] is 7300 nM.

With `Cc1c(-c2ccc(C[C@@H](C#N)NC(=O)[C@H]3N[C@@H]4CC[C@H]3C4)c(F)c2)cnn1C` [Example 65], in experiment [1], the IC50 was 11700 nM.

For the compound `CN1C(=O)Cc2ccc(-c3ccc(CC(C#N)NC(=O)[C@H]4N[C@@H]5CC[C@H]4C5)c(O)c3)cc21` (stereo partly shown) [Example 120], in experiment [2], the concentration for half-maximal inhibition (IC50) came to 55.6 nM.

`COC(=O)c1ccc(-c2ccc(C[C@@H](C#N)NC(=O)[C@H]3N[C@@H]4CC[C@H]3C4)c(F)c2)o1` [Example 175]: in experiment [2], the half-inhibitory concentration (IC50) turned out to be 6.3 nM.

`CC(=O)Nc1ccc(-c2ccc(C[C@@H](C#N)NC(=O)[C@H]3N[C@H]4C[C@@H]3[C@@H]3C[C@@H]34)c(F)c2)cc1` [Example 131]: the half-maximal inhibitory concentration (IC50) in experiment [2] was found to be 139 nM.

In the case of `CCOc1cc(-c2ccc(C[C@@H](C#N)NC(=O)[C@H]3N[C@@H]4CC[C@H]3C4)c(F)c2)cc(S(C)(=O)=O)c1` [Example 275], the IC50 in experiment [2] was 33 nM.

With `N#Cc1ccc2c(c1)[nH]c(=O)c1cc(CC(C#N)NC(=O)[C@H]3N[C@@H]4CC[C@H]3C4)ccc12` (stereo partly shown) [Example 309], in experiment [2], the IC50 is 9.1 nM.

On to `CCCNC(=O)c1cc(-c2ccc(C[C@@H](C#N)NC(=O)[C@H]3N[C@@H]4CC[C@H]3C4)c(F)c2)cs1` [Example 164], for which the IC50 in experiment [2] is 2.3 nM.

For the compound `N#CC(Cc1ccc2oc3ccccc3c2c1)NC(=O)[C@H]1N[C@@H]2CC[C@H]1C2` (stereo partly shown) [Example 212], in experiment [2], the half-inhibitory concentration (IC50) was 296 nM.

In the case of `N#C[C@H](Cc1ccc(-c2csc(C(=O)N3CCCC3)c2)cc1F)NC(=O)[C@H]1N[C@@H]2CC[C@H]1C2` [Example 165], the IC50 in experiment [2] is 2.7 nM.

Turning to `CN1Cc2ccc(-c3ccc(C[C@@H](C#N)NC(=O)[C@H]4N[C@@H]5CC[C@H]4C5)c(F)c3)cc2C1` [Example 1, (1S,2S,4R)—N-[(1S)-1-cyano-2-[2-fluoro-4-(2-methylisoindolin-5-yl)phenyl]ethyl]-3-azabicyclo[2.2.1]heptane-2-carboxamide], the IC50 in experiment [2] worked out at 8.6 nM.

For `N#C[C@H](Cc1ccc(N2C3CCC2CN(C2CCOC2)C3)cc1F)NC(=O)[C@H]1N[C@@H]2CC[C@H]1C2` (stereo partly shown) [Example 329], the concentration for half-maximal inhibition (IC50) in experiment [2] is 7 nM.

As to `CN1CCN(C(=O)c2cc(-c3ccc(C[C@@H](C#N)NC(=O)[C@H]4N[C@@H]5CC[C@H]4C5)c(F)c3)cs2)CC1` [Example 225], in experiment [2], the concentration for half-maximal inhibition (IC50) is 0.8 nM.

For the compound `N#CC(Cc1ccc2c(c1)c(=O)[nH]c1ccc(Cl)cc12)NC(=O)[C@H]1N[C@@H]2CC[C@H]1C2` (stereo partly shown) [Example 304], in experiment [2], the IC50 amounted to 6 nM.

With `COc1ccc2[nH]c(=O)c3cc(CC(C#N)NC(=O)[C@H]4N[C@@H]5CC[C@H]4C5)ccc3c2c1` (stereo partly shown) [Example 312], the IC50 in experiment [2] stood at 11 nM.

In the case of `N#C[C@H](Cc1ccc(N2CCCCC2)cc1F)NC(=O)[C@H]1N[C@@H]2CC[C@H]1C2` [Example 197], the 50% inhibitory concentration (IC50) in experiment [2] was found to be 15.6 nM.

Turning to `Cc1nn(C)cc1-c1ccc(C[C@@H](C#N)NC(=O)[C@H]2N[C@@H]3CC[C@H]2C3)c(F)c1` [Example 160], the IC50 in experiment [2] came out at 1.7 nM.

As for `CC(C)OCc1cn(-c2ccc(C[C@@H](C#N)NC(=O)[C@H]3N[C@@H]4CC[C@H]3C4)c(F)c2)nn1` [Example 124], the IC50 in experiment [2] is 187 nM.

On to `COCCN1CCC(c2ccc(C[C@@H](C#N)NC(=O)[C@H]3N[C@@H]4CC[C@H]3C4)c(F)c2)C1` (stereo partly shown) [Example 350], for which, in experiment [2], the IC50 is 38.6 nM.

On to `N#C[C@H](Cc1ccc(-c2cc[nH]c(=O)c2)cc1F)NC(=O)[C@H]1N[C@@H]2CC[C@H]1C2` [Example 257], for which, in experiment [2], the concentration for half-maximal inhibition (IC50) worked out at 39.9 nM.

With `CC1(C)CCN(c2ccc(C[C@@H](C#N)NC(=O)[C@H]3N[C@@H]4CC[C@H]3C4)c(F)c2)CC1` [Example 195], the IC50 in experiment [2] came out at 14.7 nM.

As to `N#C[C@H](Cc1ccc(-c2ccc(S(=O)(=O)N3CCOCC3)cc2)cc1F)NC(=O)[C@H]1N[C@@H]2CC[C@H]1C2` [Example 217], the IC50 in experiment [2] is 3.7 nM.

With `N#CC(Cc1ccc2[nH]ncc2c1)NC(=O)[C@H]1N[C@@H]2CC[C@H]1C2` (stereo partly drawn) [Example 8, (1S,2S,4R)—N-[1-cyano-2-(1H-indazol-5-yl)ethyl]-3-azabicyclo[2.2.1]heptane-2-carboxamide], the IC50 in experiment [2] turned out to be 679 nM.

`COC(=O)c1cc(C)c(-c2ccc(C[C@@H](C#N)NC(=O)[C@H]3N[C@@H]4CC[C@H]3C4)c(F)c2)s1` [Example 198]: the concentration for half-maximal inhibition (IC50) in experiment [2] came out at 15.8 nM.

In the case of `CN(C)CCN1C(=O)Cc2cc(-c3ccc(C[C@@H](C#N)NC(=O)[C@H]4N[C@@H]5CC[C@H]4C5)c(F)c3)ccc21` [Example 279], the half-maximal inhibitory concentration (IC50) in experiment [2] was 5.5 nM.

For the compound `N#C[C@H](Cc1ccc2ccccc2c1)NC(=O)[C@H]1N[C@@H]2CC[C@H]1C2` [Example 220], the IC50 in experiment [2] turned out to be 253 nM.

For `C[S+]([O-])c1cc(=O)n(-c2ccc(C[C@@H](C#N)NC(=O)[C@H]3N[C@@H]4CC[C@H]3C4)c(F)c2)cc1F` (stereo partly shown) [Example 265], the 50% inhibitory concentration (IC50) in experiment [2] amounted to 62.7 nM.

On to `N#C[C@H](Cc1ccc(N2CCN(C3CC3)CC2)cc1F)NC(=O)[C@H]1N[C@@H]2CC[C@H]1C2` [Example 187], for which, in experiment [2], the concentration for half-maximal inhibition (IC50) worked out at 9.8 nM.

On to `N#CC(Cc1cccc2[nH]c(=O)c3cc(F)ccc3c12)NC(=O)[C@H]1N[C@@H]2CC[C@H]1C2` (stereo partly shown) [Example 215], for which, in experiment [2], the IC50 is 882 nM.

Consider `CN(C)C(=O)c1cc(-c2ccc(C[C@@H](C#N)NC(=O)[C@H]3N[C@@H]4CC[C@H]3C4)c(F)c2)cs1` [Example 170], for which, in experiment [2], the IC50 turned out to be 4.2 nM.

In the case of `N#CC(Cc1ccc2c(c1)[nH]c(=O)c1cc(F)ccc12)NC(=O)[C@H]1N[C@@H]2CC[C@H]1C2` (stereo partly shown) [Example 207], the concentration for half-maximal inhibition (IC50) in experiment [2] is 29.1 nM.

Regarding `Cn1ncc2cc(-c3ccc(C[C@@H](C#N)NC(=O)[C@H]4N[C@H]5C[C@@H]4[C@@H]4C[C@@H]45)c(F)c3)ccc21` [Example 137], the half-maximal inhibitory concentration (IC50) in experiment [2] was 59.7 nM.

Regarding `N#CC(Cc1ccc2cn[nH]c2c1)NC(=O)[C@H]1N[C@@H]2CC[C@H]1C2` (stereo partly shown) [Example 127], the IC50 in experiment [2] stood at 860 nM.

As for `CCOC(=O)c1ccc(-c2ccc(C[C@@H](C#N)NC(=O)[C@H]3N[C@@H]4CC[C@H]3C4)c(F)c2)s1` [Example 179], in experiment [2], the 50% inhibitory concentration (IC50) was 7.5 nM.
